Results on 1 compound are retold here after US20190169134A1, “NOVEL CLASS OF QUINOLONE HETEROCYCLIC AROMATIC MOLECULES FOR CANCER TREATMENT” (RenoTarget Therapeutics, Inc., priority 2016, published 2019).

The subject of this assay is PD-L1. The experiment in a line: qRT-PCR expression of PD-L1 in HCC827-P cells. The note with it: 1 μM, 24 hrs. Format: cell-based, human. The protocol:
FIG. 11 depicts the effects of Reno647 on expression of PD-L1 in HCC827-P and HCC827-TR cells. HCC827-P and HCC827-TR cells at exponential growth phase were exposed to indicated concentration of Reno647 for 24 hrs. Total cellular RNA was extracted and cDNA was prepared followed by qRT-PCR using specific probes for PD-L1 and GAPDH (internal control) as described in the section of Materials and Methods. Tgene ΔCt value was normalized for GAPDH by calculating ΔCt=Ctgene−CtGAPDH per sample.
HCC827 P or other indicated cells at exponential growth phase were treated with indicated concentrations of compounds for 24 hours. Total cellular RNA was prepared from lysed tumor cells using an RNA Purification kit (ThermoFisher Scientific). The first-strand of cDNA was synthesized using a High Capacity cDNA reverse transcription kit (ThermoFisher Scientific) in PTC-100 Peltier Thermal Cycler PCR. The resultant cDNA (0.5-1 μL) was used in a 10 μl reaction by using Taqman Universal PCR Master Mix (ThermoFisher Scientific). The pre-designed primers and probe were purchased from Life Technologies and used for qPCR. Human GAPDH was used as an internal control. qPCR was performed using Applied Biosystems StepOne and StepOnePlus Real-Time PCR Systems according manufacturer's instructions. An initial PCR denaturation step was performed at 95° C. for 20 seconds. […]

For `C#Cc1cccc(Nc2ncnc3cc(OCCOC)c(NC(=O)c4ccc(F)c([N+](=O)[O-])c4)cc23)c1` [Reno647, 4-Fluoro-N-[4-(3-ethynyl-phenylamino)-7-(2-methoxy-ethoxy)-quinazolin-6-yl]-3-nitro-benzamide], the “reduction of PD-L1 expression” value is “Over 93%”.
